Assay results as given in patent publication US20230003718A1, “METHODS FOR ASSESSING RATES OF DNA REPAIR” (The Johns Hopkins University, priority 2021, published 2023).
Entries after “also recorded” stand apart in the source; their conditions may differ. Read-outs that look alike come from different tables or passages of the source.

Legend:
Assay type in all cases: cell-based
[1] = tested on: non-homologous end joining (NHEJ) repair of Cas9 DSB in HEK293FT cells; assay: RepairSwitch assay, rate of NHEJ (loss of EGFP, flow cytometry); conditions: dose range 1 nm to 10 uM
Method: (§1) All cell lines were plated in 12-well plates at 2.5E5 cells/well in their respective growth mediums. The growth medium was then replaced after 24-48 hours and the cells were transfected with lug of CRISPR/Cas9 gRNA construct, lug of HR repair template, or both gRNA and HR repair template (2 ug total) in combination using FuGENE HD (Promega) at a FuGENE to DNA ratio of 3:1. The DNA was mixed with Opti-MEM (50 ul Opti-MEM/ug DNA) and FuGENE was added for an incubation period of 15 minutes before being added dropwise to the well. If drug is being utilized, cells are dosed immediately prior to transfection. Fresh growth medium was replaced every 48-72 hours. Cells were kept in culture for 1 week before assessment of fluorescence via flow cytometry.
(§2) All drugs were dissolved in DMSO as per Selleck instructions. For cell-based work drugs were diluted to a final concentration of 0.001% DMSO. All drugs were given in a dose range of 1 nm to 10 uM, unless toxicity was shown in Incucyte proliferation assays (S1, S2).
Medium was removed from 12-well plates and cells were detached from plate using TrypLE Express. FBS containing medium was used to neutralize TrypLE Express and cells were collected and spun down at 1000 RPM for 5 min. […] For each sample, 10,000-30,000 high DsRed expressing cells were counted depending on sample concentration, and assessed for both EGFP and BFP expression. […]
(§3) The RepairSwitch assay was developed to measure the balance of HR- and NHEJ-mediated double-strand break (DSB) repair. […] In this system, the resulting fluorescence, post CRISPR/Cas9 cutting at the target locus, is dependent on the method of repair. […] Either, the EGFP fluorescence will be extinguished due to the error prone repair, or it is possible for the EGFP protein to be repaired correctly or with a silent mutation via NHEJ, thereby producing a viable fluorescent signal. […] A schematic of the RepairSwitch assay readout (FIG. 1B) provides a concise overview of the possible fluorescent outcomes and their respective implications.

[2] = tested on: homologous recombination (HR) repair of Cas9 DSB in HEK293FT cells; assay: RepairSwitch assay, rate of HR (EGFP to BFP switch, flow cytometry); conditions: for IC50: RepairSwitch, 1 week after transfection, read-out: IC50 for inhibition of HR rate; for Effect on rate of HR: dose range 1 nm to 10 uM
Method: as §1, §2
(§4) Medium was removed from 12-well plates and cells were detached from plate using TrypLE Express. FBS containing medium was used to neutralize TrypLE Express and cells were collected and spun down at 1000 RPM for 5 min. Cell pellets were then washed with PBS twice before resuspension in 500 ul PBS and put on ice. Prior to flow of each sample, cells were resuspended and put through a cell-strainer cap on the flow tube. Cells were gated to ensure single cell population as well as high DsRed expression. For each sample, 10,000-30,000 high DsRed expressing cells were counted depending on sample concentration, and assessed for both EGFP and BFP expression. FlowJo was utilized to analyze all flow cytometry results and to produce statistics on each population.
Graphpad Prism was utilized to visualize statistical results from FlowJo. Additionally, it was utilized to provide statistical analyses of p value using unpaired t-tests.
The RepairSwitch assay was developed to measure the balance of HR- and NHEJ-mediated double-strand break (DSB) repair. To accomplish this, it was necessary to design assay vectors that could be lenti-virally transduced into cells and would thereby be incorporated into the genome. […] Additionally, it allowed DsRed to serve as a transduction control to ensure vector integration at an MOI of 0.3, while EGFP served as a target for CRISPR/Cas9 induced DSB. […] Additionally, in conjunction with the administration of the CRISPR/Cas9 EGFP gRNA, exogenous single stranded DNA oligos were administered in excess and act as the repair template. In this system, the resulting fluorescence, post CRISPR/Cas9 cutting at the target locus, is dependent on the method of repair. Upon utilization of the repair template in repair via homologous recombination (HR) the resulting locus will be converted from EGFP to BFP. This is possible due to the sequence similarity of these fluorescent proteins, which differ in only two bases, resulting in the substitution of two adjacent amino acids. […] Either, the EGFP fluorescence will be extinguished due to the error prone repair, or it is possible for the EGFP protein to be repaired correctly or with a silent mutation via NHEJ, thereby producing a viable fluorescent signal. […] A schematic of the RepairSwitch assay readout (FIG. 1B) provides a concise overview of the possible fluorescent outcomes and their respective implications.

[3] = tested on: non-homologous end joining (NHEJ) repair of Cas9 DSB in HCT116 cells; assay: RepairSwitch assay, rate of NHEJ (loss of EGFP, flow cytometry)
Method: (§5) All cell lines were plated in 12-well plates at 2.5E5 cells/well in their respective growth mediums. […]. The DNA was mixed with Opti-MEM (50 ul Opti-MEM/ug DNA) and FuGENE was added for an incubation period of 15 minutes before being added dropwise to the well. If drug is being utilized, cells are dosed immediately prior to transfection. Fresh growth medium was replaced every 48-72 hours. Cells were kept in culture for 1 week before assessment of fluorescence via flow cytometry.
(§6) All compounds used can be found listed in Table 1, and all were purchased from Selleck. All drugs were dissolved in DMSO as per Selleck instructions. […].
Medium was removed from 12-well plates and cells were detached from plate using TrypLE Express. […] For each sample, 10,000-30,000 high DsRed expressing cells were counted depending on sample concentration, and assessed for both EGFP and BFP expression. […]
The RepairSwitch assay was developed to measure the balance of HR- and NHEJ-mediated double-strand break (DSB) repair. […] In this system, the resulting fluorescence, post CRISPR/Cas9 cutting at the target locus, is dependent on the method of repair. […] Either, the EGFP fluorescence will be extinguished due to the error prone repair, or it is possible for the EGFP protein to be repaired correctly or with a silent mutation via NHEJ, thereby producing a viable fluorescent signal. […]

[4] = tested on: homologous recombination (HR) repair of Cas9 DSB in HCT116 cells; assay: cells; conditions: for Effect on rate of HR: HCT116 cells
Method: as §5, §6, §4
Graphpad Prism was utilized to visualize statistical results from FlowJo. […]
as §3

Compound | Effect on rate of NHEJ [1] | Effect on rate of NHEJ ([1]; listed as decitabine) | IC50 ([2]; 168 h) | Effect on rate of HR [2] | Effect on rate of HR ([2]; listed as decitabine) | Effect on rate of NHEJ [3] | Effect on rate of NHEJ ([3]; listed as decitabine) | Effect on rate of HR [4] | Effect on rate of HR ([4]; listed as decitabine) | IC50 ([4]; Homo sapiens, HCT-116, read-out: IC50 for inhibition of HR rate) | IC50 [2]
Nc1ncn([C@H]2C[C@H](O)[C@@H](CO)O2)c(=O)n1 [Decitabine] | compensatory increase in the rates of NHEJ | increased rates of NHEJ | 187 nM | dose responsive decrease in the rates of HR | reduced HR | also consistent in HCT116 cells | increased rates of NHEJ | also consistent in HCT116 cells | reduced HR | 1400 nM | –
Olaparib | lower potency in modulating HR and NHEJ; also recorded: subtle increase in the rates of NHEJ | – | – | lower potency in modulating HR and NHEJ; also recorded: subtle reduction in rates of HR | – | – | – | – | – | – | 739 nM
